Conditions: for molar entropy: 101.33 kPa, Vacuum adiabatic calorimetry; for Triple point temperature / Glass transition temperature: Adiabatic calorimetry

CCCCn1cc[n+](C)c1.[I-] [1-butyl-3-methylimidazolium iodide]
molar entropy [J/K/mol]
Conditions	Crystal	Glass	Liquid
0 K	–	15.2	–
5 K	0.279	15.7	–
10 K	2.27	18.7	–
15 K	6.48	24	–
20 K	12.19	30.7	–
25 K	18.74	38.1	–
30 K	25.76	46	–
35 K	32.98	54.1	–
40 K	40.24	62.1	–
45 K	47.47	70.1	–
50 K	54.62	77.9	–
60 K	68.59	93.1	–
70 K	82.02	107.7	–
80 K	94.91	121.6	–
90 K	107.3	135	–
100 K	119.2	147.9	–
110 K	130.6	160.2	–
120 K	141.7	172	–
130 K	152.3	183.5	–
140 K	162.6	194.6	–
150 K	172.6	205.3	–
160 K	182.3	215.8	–
170 K	191.8	226.1	–
180 K	201.1	236.1	–
190 K	210.2	246	–
200 K	219.2	255.8	–
210 K	228.1	–	266.8
220 K	236.8	–	280.1
230 K	245.5	–	292.9
240 K	254.1	–	305.3
250 K	262.7	–	317.3
260 K	271.2	–	328.9
270 K	279.8	–	340.1
280 K	288.5	–	351.1
290 K	297.2	–	361.9
291.92 K	298.8	–	363.9
298.15 K	–	–	370.4
300 K	–	–	372.3
310 K	–	–	382.6
320 K	–	–	392.6
330 K	–	–	402.4
340 K	–	–	412.1
350 K	–	–	421.5
360 K	–	–	430.9
370 K	–	–	440

Conditions	Glass transition temperature [°C]	Triple point temperature [K]
Crystal	–	291.92
Glass	-66	–

CCC[n+]1ccn(C)c1.[Br-] [1-methyl-3-propylimidazolium bromide]
molar entropy [J/K/mol]
Conditions	Crystal 2	Glass	Liquid
0 K	–	15.3	–
5 K	0.097	15.6	–
10 K	0.884	17.7	–
15 K	3.03	21.6	–
20 K	6.53	26.8	–
25 K	11.08	32.9	–
30 K	16.39	39.5	–
35 K	22.19	46.3	–
40 K	28.28	53.3	–
45 K	34.52	60.2	–
50 K	40.8	67.1	–
60 K	53.3	80.6	–
70 K	65.48	93.6	–
80 K	77.24	106.1	–
90 K	88.54	118.1	–
100 K	99.4	129.6	–
110 K	109.8	140.6	–
120 K	119.9	151.2	–
130 K	129.6	161.4	–
140 K	139	171.3	–
150 K	148	180.8	–
160 K	156.9	190.2	–
170 K	165.5	199.3	–
180 K	173.9	208.2	–
190 K	182.2	217	–
200 K	190.2	225.6	–
210 K	198.2	234.3	–
220 K	206.1	–	244.9
230 K	213.8	–	256.5
240 K	221.5	–	267.7
250 K	229.2	–	278.5
260 K	236.8	–	289
270 K	244.4	–	299.2
280 K	252.1	–	309.1
290 K	259.9	–	318.8
298.15 K	266.3	–	326.6
300 K	–	–	328.3
309.54 K	275.4	–	337.2
310 K	–	–	337.6
320 K	–	–	346.7
330 K	–	–	355.6
340 K	–	–	364.4
350 K	–	–	373
360 K	–	–	381.5
370 K	–	–	389.8

Conditions	Glass transition temperature [°C]	Triple point temperature [K]
Crystal 2	–	309.54
Glass	-60	–

Source: the NIST ThermoML archive (doi:10.1016/j.jct.2014.07.018)
